The source of these data is US9115092B2, “Substituted quinazoline and pyrido-pyrimidine derivatives” (Asana Biosciences, LLC, priority 2010, dated 2015).

Each structure is given as a SMILES string.

Assay [1] concerns pS6RP(S235/236), PC3 cells. The assay can be described thus: In-cell Western assay, pS6RP(S235/236) in PC3 cells. The class given is cell-based, human. The procedure, abridged: (§1)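 Overnight-seeded PC3 cells were treated 2 h with serially diluted compound, then fixed and immunostained with phospho-specific primary antibodies and Eu-labelled secondary. Time-resolved Eu signal read at 615 nm (ex 340 nm), normalised by Hoechst 33258 staining (ex 355/em 460 nm); IC50 from sigmoidal dose-response fit.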

The test system of assay [2] is pAKT(5473) (phosphorylated at serine 473), PC3 cells. The assay is described as follows: In-cell Western assay, pAKT(5473) in PC3 cells. The class given is cell-based. As to conditions: Homo sapiens, PC-3, In-cell Western, read-out: pAkt-S473. The procedure, abridged: as §1
Another assay deals with PI3 kinase isoform β (Homo sapiens, UniProt P42338). The assay is described as follows: PI3 Kinase TR-FRET assay, isoform β. The format is biochemical. As to conditions: read-out: inhibition of PI3 kinase isoform β, IC50. Here is the method:
(§2) The ability of compounds of the invention to inhibit PI3K activity was determined in a homogeneous TR-FRET assay using a PI3K assay kit (Millipore, USA; cat #33-016) according to manufacturer's instructions. PI3-Kinases (isoforms α, β, γ and δ) catalyze the phosphorylation of phosphatidylinositol, PIP2 to PIP3 in the presence of ATP and Mg^2+. The PIP3 product is detected by displacement of biotin-PIP3 from an energy transfer complex consisting of Europium labeled anti-GST monoclonal antibody, a GST-tagged PH domain, biotinylated PIP3 and Streptavidin-APC. Excitation of Europium in the complex results in an energy transfer to the APC and a fluorescence emission at 665 nm. The PIP3 product displaces biotin-PIP3 from the complex resulting in a loss of energy transfer and thus a decrease in signal.
(§3) To test for the ability of compounds to inhibit the activity of PI3Kα (wild-type), exemplary compounds of formula (I) were dissolved in DMSO and directly distributed into 384-well plates at a volume of 0.5 μL. 14.5 μL of P110/P85α/PIP2 mixture in buffer (obtained from the Millipore kit) containing MgCl2 (40 mM) and DTT (5 mM) was added to compound wells and incubated for 60 min at room temperature. P110/P85α was expressed in SF9 insect cells and purified nickel column extraction. Five ng of wild-type P110/P85α was used in the assay. The kinase reaction was started by the addition of ATP. The assay concentrations of both PIP2 and ATP were 10 μM. The reaction mixture was incubated for 30 min at room temperature and was terminated by the addition of stop mix and detection mix. Fluorescence was measured at 615 and 665 nm upon excitation at 340 nm in a Victor™ V5 fluorometer (Perkin Elmer, USA). The fluorescence emission ratio at 665 to 615 nm, proportional to the kinase activity, was plotted against the compound concentration to generate dose-response curves and IC50 values were determined using GraphPad Prism® 5 software.
The activity of PI3 kinase isoforms β, γ and δ were assayed in a similar manner to the assay protocol described above for PI3Kα, by substituting the appropriate p110/p85 isoform for the p110α/p85α. Compounds of formula (I) caused inhibition of PI3 kinase isoforms β, γ and δ as determined by these assays. For example, the compounds of examples 3, 51, 54, 111, 113, 115, and 253 each caused inhibition of PI3 kinase isoform β with IC50 values <50 nM. The compounds of examples 104, 133, 146 and 152 each caused inhibition of PI3 kinase isoform β with IC50 values <500 nM. The compounds of examples 3, 51, 54, 104, 111, 113, 115, 133, 253, and 152 each caused inhibition of PI3 kinase isoform γ with IC50 values <500 nM. […] The compounds of examples 2, 3, 51, 54, 111, 113, and 253 each caused inhibition of PI3 kinase isoform […] with IC50 values >1 μM.
(In general: TR-FRET usually uses a lanthanide donor and a delayed reading to cut background.)

In another assay the target is PI3Kα mutation H1047R (Homo sapiens, UniProt P42336, H1047R). The assay is described as follows: PI3 Kinase TR-FRET assay, PI3Kα mutation H1047R. The class given is biochemical. The note with it: read-out: inhibition of PI3Kα mutation H1047R, IC50. How it is done: as §2, §3
(§4) The activity of PI3Kα mutations H1047R and E545K were assayed in a similar manner to the assay protocol described above for PI3Kα (wild type). […]

The target of the next assay is PI3Kα mutation E545K (Homo sapiens, UniProt P42336, E545K). The assay is described as follows: PI3 Kinase TR-FRET assay, PI3Kα mutation E545K. The class given is biochemical. The note with it: read-out: inhibition of PI3Kα mutation E545K, IC50. Here is the method: as §2, §3, §4
The mark [3] stands for this setting: Homo sapiens, PC-3, In-cell Western.

Sequence of PI3Kα mutation E545K (P42336 whole entry E545K): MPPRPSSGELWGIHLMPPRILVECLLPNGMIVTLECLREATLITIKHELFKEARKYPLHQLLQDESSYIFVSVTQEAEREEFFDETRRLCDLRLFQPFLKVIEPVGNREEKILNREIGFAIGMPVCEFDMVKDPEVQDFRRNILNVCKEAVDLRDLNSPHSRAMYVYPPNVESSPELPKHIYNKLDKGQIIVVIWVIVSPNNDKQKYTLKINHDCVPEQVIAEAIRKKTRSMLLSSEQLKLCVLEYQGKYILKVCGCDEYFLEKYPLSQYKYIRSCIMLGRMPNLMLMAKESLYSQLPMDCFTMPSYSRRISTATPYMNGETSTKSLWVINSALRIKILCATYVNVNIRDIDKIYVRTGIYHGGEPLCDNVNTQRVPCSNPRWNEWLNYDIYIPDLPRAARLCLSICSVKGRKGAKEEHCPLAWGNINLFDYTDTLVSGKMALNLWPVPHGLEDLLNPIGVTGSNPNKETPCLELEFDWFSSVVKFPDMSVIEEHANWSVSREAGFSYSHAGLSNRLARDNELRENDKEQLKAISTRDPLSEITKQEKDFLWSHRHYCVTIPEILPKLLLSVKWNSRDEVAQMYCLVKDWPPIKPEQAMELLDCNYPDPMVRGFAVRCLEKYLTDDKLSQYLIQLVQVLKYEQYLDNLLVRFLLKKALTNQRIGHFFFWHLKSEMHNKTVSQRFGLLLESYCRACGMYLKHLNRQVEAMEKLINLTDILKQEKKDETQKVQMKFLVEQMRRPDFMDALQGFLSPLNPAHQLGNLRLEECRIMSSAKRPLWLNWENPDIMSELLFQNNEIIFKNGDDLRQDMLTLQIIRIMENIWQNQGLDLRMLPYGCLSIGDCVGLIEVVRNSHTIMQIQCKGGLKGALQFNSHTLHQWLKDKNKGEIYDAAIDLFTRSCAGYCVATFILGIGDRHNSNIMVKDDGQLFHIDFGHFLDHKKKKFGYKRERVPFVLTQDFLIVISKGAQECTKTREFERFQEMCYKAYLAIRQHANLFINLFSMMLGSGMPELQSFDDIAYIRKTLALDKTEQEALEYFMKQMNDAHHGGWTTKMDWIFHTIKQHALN
Sequence of PI3Kα mutation E545K (P27986 whole entry partner): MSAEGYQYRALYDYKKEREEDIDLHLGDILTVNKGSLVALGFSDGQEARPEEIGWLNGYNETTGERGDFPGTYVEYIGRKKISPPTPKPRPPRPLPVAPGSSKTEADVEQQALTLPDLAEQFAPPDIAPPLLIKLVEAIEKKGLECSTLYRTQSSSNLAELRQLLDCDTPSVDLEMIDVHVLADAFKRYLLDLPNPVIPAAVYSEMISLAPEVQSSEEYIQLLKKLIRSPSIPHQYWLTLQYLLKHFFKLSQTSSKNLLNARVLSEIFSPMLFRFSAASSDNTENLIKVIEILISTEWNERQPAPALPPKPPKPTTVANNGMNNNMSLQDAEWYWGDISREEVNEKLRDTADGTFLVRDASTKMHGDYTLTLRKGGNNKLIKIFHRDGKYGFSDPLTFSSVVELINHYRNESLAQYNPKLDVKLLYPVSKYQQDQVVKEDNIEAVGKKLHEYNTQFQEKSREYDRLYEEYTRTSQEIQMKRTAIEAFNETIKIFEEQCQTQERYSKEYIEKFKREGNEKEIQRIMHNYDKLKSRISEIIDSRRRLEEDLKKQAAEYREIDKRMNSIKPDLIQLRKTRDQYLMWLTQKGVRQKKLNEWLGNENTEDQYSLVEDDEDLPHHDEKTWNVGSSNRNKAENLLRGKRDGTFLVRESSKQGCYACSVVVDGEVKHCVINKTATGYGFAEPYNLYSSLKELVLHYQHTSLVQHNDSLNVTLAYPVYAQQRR
Sequence of PI3 kinase isoform β (P42338 whole entry, the tested form may be a part, canonical isoform): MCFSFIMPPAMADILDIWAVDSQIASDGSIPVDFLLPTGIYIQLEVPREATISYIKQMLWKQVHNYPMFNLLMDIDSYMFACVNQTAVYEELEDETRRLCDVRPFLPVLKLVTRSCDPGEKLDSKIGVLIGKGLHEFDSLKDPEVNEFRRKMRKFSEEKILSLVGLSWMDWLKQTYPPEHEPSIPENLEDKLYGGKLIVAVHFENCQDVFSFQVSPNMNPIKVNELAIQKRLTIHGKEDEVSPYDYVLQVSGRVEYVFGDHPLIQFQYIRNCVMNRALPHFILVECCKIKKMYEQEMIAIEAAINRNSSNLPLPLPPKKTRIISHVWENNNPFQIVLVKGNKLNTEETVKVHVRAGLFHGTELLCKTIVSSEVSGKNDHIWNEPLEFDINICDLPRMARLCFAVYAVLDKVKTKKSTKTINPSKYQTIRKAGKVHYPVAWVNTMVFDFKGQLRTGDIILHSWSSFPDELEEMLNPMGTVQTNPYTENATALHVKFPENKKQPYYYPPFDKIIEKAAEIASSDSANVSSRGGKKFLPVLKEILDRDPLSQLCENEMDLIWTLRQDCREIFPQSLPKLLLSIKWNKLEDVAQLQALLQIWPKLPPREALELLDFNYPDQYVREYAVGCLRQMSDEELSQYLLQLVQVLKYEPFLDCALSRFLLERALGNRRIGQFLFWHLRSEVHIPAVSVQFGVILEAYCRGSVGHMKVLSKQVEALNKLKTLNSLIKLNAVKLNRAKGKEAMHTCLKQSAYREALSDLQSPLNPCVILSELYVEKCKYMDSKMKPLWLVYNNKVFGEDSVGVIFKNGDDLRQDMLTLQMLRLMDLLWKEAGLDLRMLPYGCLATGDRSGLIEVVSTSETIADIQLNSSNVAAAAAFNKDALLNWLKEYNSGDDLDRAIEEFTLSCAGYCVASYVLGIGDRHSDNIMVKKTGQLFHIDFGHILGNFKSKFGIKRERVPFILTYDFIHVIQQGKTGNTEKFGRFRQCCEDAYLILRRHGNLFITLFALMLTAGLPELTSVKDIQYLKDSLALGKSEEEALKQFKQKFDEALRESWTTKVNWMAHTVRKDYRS
Sequence of PI3 kinase isoform β (P27986 whole entry partner, the tested form may be a part, canonical isoform): as the sequence (P27986 whole entry partner) above
Sequence of PI3Kα mutation H1047R (P42336 whole entry H1047R): as the sequence (P42336 whole entry E545K) above, with K545E, H1047R counted along it
Sequence of PI3Kα mutation H1047R (P27986 whole entry partner): as the sequence (P27986 whole entry partner) above

Turning to `CN(C)C(=O)c1ccc(NC(=O)Nc2ccc(-c3nc(N4CCOCC4)c4ccc(-c5cncnc5)cc4n3)cc2)cc1` [Example 1, N,N-Dimethyl-4-(3-{4-[4-morpholin-4-yl-7-pyrimidin-5-yl-quinazolin-2-yl)-phenyl]-ureido}-benzamide], the figures for the IC50 in assay [1] (setting [3]) and in assay [2] were less than 100 nM and 100 to 500 nM, respectively.
Turning to `Cc1ccc(-c2ccc3c(N4CCOCC4)nc(-c4ccc(NC(=O)Nc5ccc(C(=O)N(C)C)cc5)cc4)nc3c2)o1` [Example 2, N,N-Dimethyl-4-(3-{4-[7-(5-methyl-furan-2-yl)-4-morpholin-4-yl-quinazolin-2-yl]-phenyl}-ureido)-benzamide], the IC50 in assay [1] (setting [3]) was 100 to 500 nM; at PI3 kinase isoform β, less than 1000 nM; in assay [2], 100 to 500 nM.
Turning to `CN(C)C(=O)c1ccc(NC(=O)Nc2ccc(-c3nc(N4CCOCC4)c4ccc(-c5ccco5)cc4n3)cc2)cc1` [Example 51, 4-{3-[4-(7-furan-2-yl-4-morpholin-4-yl-quinazolin-2-yl)-phenyl]-ureido}-N,N-dimethyl-benzamide], the IC50 in assay [1] (In-cell Western) was in the range of 501 to 5000 nM.
Regarding `CN(C)C(=O)c1ccc(NC(=O)Nc2ccc(-c3nc(N4CCOCC4)c4ccc(-c5cncnc5)cc4n3)cc2)c(F)c1` [Example 133, 3-fluoro-N,N-dimethyl-4-(3-(4-(4-morpholino-7-(pyrimidin-5-yl)quinazolin-2-yl)phenyl)ureido)-benzamide], the IC50 in assay [1] (setting [3]) is 201 to 10000 nM; at PI3Kα mutation H1047R, less than 500 nM; on PI3Kα mutation E545K, less than 500 nM; on PI3 kinase isoform β, less than 500 nM; in assay [2] it was 501 to 5000 nM.
With `CN(C)C(=O)c1ccc(NC(=O)Nc2ccc(-c3nc(N4CCOCC4)c4ccc(-c5cccnc5F)cc4n3)cc2)c(F)c1` [Example 146, 3-fluoro-4-(3-(4-(7-(2-fluoropyridin-3-yl)-4-morpholino-quinazolin-2-yl)phenyl)ureido)-N,N-dimethyl-benzamide], the IC50 on PI3Kα mutation H1047R was less than 500 nM; at PI3Kα mutation E545K it was less than 500 nM; at PI3 kinase isoform β, less than 500 nM; in assay [2], less than 100 nM.
Consider `CN(C)C(=O)c1ccc(NC(=O)Nc2ccc(-c3nc(N4CCOCC4)c4ccc(-c5cccnc5)cc4n3)cc2)c(F)c1` [Example 152, 3-fluoro-N,N-dimethyl-4-(3-(4-(4-morpholino-7-(pyridin-3-yl)quinazolin-2-yl)phenyl)ureido)-benzamide], for which the IC50 on PI3Kα mutation H1047R was less than 500 nM; on PI3Kα mutation E545K, less than 500 nM; at PI3 kinase isoform β, less than 500 nM; in assay [2] it was 501 to 5000 nM.
